Laboratory results taken from patent publication EP0620225B1, “Cephalosporin derivatives” (Basilea Pharmaceutica AG, priority 1993, dated 1994).
≈ marks a conversion by molar mass, not a printed value. One block for each molecule: values may come before it.

Experiments:
[1] = test system: E.faecalis; assay: In vitro activity against selected species (MIC50, MIC90, range); assay type: cell-based; conditions: Enterococcus faecalis, medium IsoB
[2] = test system: Escherichia coli 25922; assay: Efficacy against systemic infections (septicemia) in mice; assay type: in vivo; conditions: 96 h, Escherichia coli 25922, po (orally) 1 and 3 h after challenge, survival day 4
Description: Septicemia was induced in outbred Swiss albino mice (Jbm MoRo [specific pathogen free]; weight 16 to 20 g, Biomedical Research Laboratories, Füllinsdorf, Switzerland). Mice were infected by intraperitoneal injection of diluted overnight cultures of the test organisms. Bacterial challenge doses were 4-10 times the number of organisms required to kill 50% of untreated animals within 48 h. The test compounds were administered p.o. or s.c. 1 and 3 h after the bacterial challenge. To treat the infection with Pseudomonas aeruginosa BA an additional dose was given 5 h after challenge. Control and treatment groups at each dose were composed of five mice each. The 50% effective dose (ED50, in milligrams per kilogram) was calculated by probit analysis as described by Finney (Finney, D.J. 1978, Statistical method in biological assay, 3rd ed. Charles Griffin & Co., Ltd., London), from the survival rates on day 4 after infection.

[3] = test system: M.catarrhalis; assay: In vitro activity against selected species (MIC50, MIC90, range); assay type: cell-based; conditions: Moraxella catarrhalis, medium IsoB
[4] = test system: P.mirabilis 2117; assay: Antibacterial spectrum (MIC), agar dilution; assay type: cell-based; conditions: Proteus mirabilis, read-out: MIC
Description: (§1) In vitro activity was determined by minimum inhibitory concentration in a microorganism spectum by the agar dilution method in Mueller Hinton agar.

[5] = test system: S.pyogenes B15; assay: Antibacterial spectrum (MIC), agar dilution; assay type: cell-based; conditions: Streptococcus pyogenes, read-out: MIC
Description: as §1

[6] = test system: C.freundii 43; assay: Antibacterial spectrum (MIC), agar dilution; assay type: cell-based; conditions: Citrobacter freundii, read-out: MIC
Description: as §1

[7] = test system: C.freundii 902; assay: Antibacterial spectrum (MIC), agar dilution; assay type: cell-based; conditions: Citrobacter freundii, read-out: MIC
Description: as §1

[8] = test system: E.coli 25922; assay: Antibacterial spectrum (MIC), agar dilution; assay type: cell-based; conditions: Escherichia coli, read-out: MIC
Description: as §1

[9] = test system: E.faecalis 6; assay: Antibacterial spectrum (MIC), agar dilution; assay type: cell-based; conditions: Enterococcus faecalis, read-out: MIC
Description: as §1

[10] = test system: E.cloacae 908SSi; assay: Antibacterial spectrum (MIC), agar dilution; assay type: cell-based; conditions: Enterobacter cloacae, read-out: MIC
Description: as §1

[11] = test system: S.agalactiae QK44; assay: Antibacterial spectrum (MIC), agar dilution; assay type: cell-based; conditions: Streptococcus agalactiae, read-out: MIC
Description: as §1

[12] = test system: S.aureus 6538; assay: Antibacterial spectrum (MIC), agar dilution; assay type: cell-based; conditions: Staphylococcus aureus, read-out: MIC
Description: as §1

[13] = test system: E.cloacae 908R; assay: Antibacterial spectrum (MIC), agar dilution; assay type: cell-based; conditions: Enterobacter cloacae, read-out: MIC
Description: as §1

[14] = test system: P.vulgaris 1028; assay: Antibacterial spectrum (MIC), agar dilution; assay type: cell-based; conditions: Proteus vulgaris, read-out: MIC
Description: as §1

[15] = test system: K.pneumoniae 418; assay: Antibacterial spectrum (MIC), agar dilution; assay type: cell-based; conditions: Klebsiella pneumoniae, read-out: MIC
Description: as §1

[16] = test system: N.meningitidis 69480; assay: Antibacterial spectrum (MIC), agar dilution; assay type: cell-based; conditions: Neisseria meningitidis, read-out: MIC
Description: as §1

[17] = test system: M.catarrhalis RA21; assay: Antibacterial spectrum (MIC), agar dilution; assay type: cell-based; conditions: Moraxella catarrhalis, read-out: MIC
Description: as §1

[18] = test system: Acinetobacter sp.51-156; assay: Antibacterial spectrum (MIC), agar dilution; assay type: cell-based; conditions: SP.51156, read-out: MIC
Description: as §1

[19] = test system: S.aureus 734 MRSA; assay: Antibacterial spectrum (MIC), agar dilution; assay type: cell-based; conditions: Staphylococcus aureus, read-out: MIC
Description: as §1

[20] = test system: H.influenzae 1; assay: Antibacterial spectrum (MIC), agar dilution; assay type: cell-based; conditions: Haemophilus influenzae, read-out: MIC
Description: as §1

[21] = test system: M.morganii 6H-137; assay: Antibacterial spectrum (MIC), agar dilution; assay type: cell-based; conditions: Morganella morganii, 6H137, read-out: MIC
Description: as §1

[22] = test system: S.pneumoniae Q19; assay: Antibacterial spectrum (MIC), agar dilution; assay type: cell-based; conditions: Streptococcus pneumoniae, read-out: MIC
Description: as §1

[23] = test system: P.aeruginosa 27853; assay: Antibacterial spectrum (MIC), agar dilution; assay type: cell-based; conditions: Pseudomonas aeruginosa, read-out: MIC
Description: as §1

[24] = test system: S.marcescens 69438; assay: Antibacterial spectrum (MIC), agar dilution; assay type: cell-based; conditions: Serratia marcescens, read-out: MIC
Description: as §1

[25] = test system: S.viridans group 016; assay: Antibacterial spectrum (MIC), agar dilution; assay type: cell-based; conditions: Streptococcus viridans, read-out: MIC
Description: as §1

[26] = test system: X.maltophilia 1AC739; assay: Antibacterial spectrum (MIC), agar dilution; assay type: cell-based; conditions: Stenotrophomonas maltophilia, read-out: MIC
Description: as §1

[27] = test system: S.aureus MRSA; assay: In vitro activity against selected species (MIC50, MIC90, range); assay type: cell-based; conditions: Staphylococcus aureus, medium MHA (Mueller Hinton Agar) +NaCl
Description: as §1

[28] = test system: E.faecalis; assay: as above; assay type: cell-based; conditions: Enterococcus faecalis, medium MHA
Description: as §1

[29] = test system: S.pneumoniae PEN-R; assay: as above; assay type: cell-based; conditions: Streptococcus pneumoniae; for MIC: MIC range
[30] = test system: S.viridans group; assay: as above; assay type: cell-based; conditions: Streptococcus viridans
[31] = test system: E.faecium; assay: In vitro activity against selected species (MIC50, range); assay type: cell-based; conditions: Enterococcus faecium, medium MHA
Description: as §1

[32] = test system: S.aureus MSSA; assay: In vitro activity against selected species (MIC50, MIC90, range); assay type: cell-based; conditions: Staphylococcus aureus, medium MHB (Mueller Hinton Broth)
[33] = test system: L.monocytogenes BK23; assay: Antibacterial spectrum (MIC), agar dilution; assay type: cell-based; conditions: Listeria monocytogenes, read-out: MIC
Description: as §1

[34] = medium IsoB (Isosensitest Broth)

MIC ([1]; MIC range): 0.5 to 4 µg/mL (≈ 0.96 to 7.68 µM)
MIC50 [1]: 2 µg/mL (≈ 3.84 µM)
MIC90 [1]: 2 µg/mL (≈ 3.84 µM)
MIC ([3]; MIC range): 2 to 32 µg/mL (≈ 3.84 to 61.5 µM)
MIC50 [3]: 8 µg/mL (≈ 15.4 µM)
MIC90 [3]: 16 µg/mL (≈ 30.7 µM)
MIC [4]: 0.12 µg/mL (≈ 0.231 µM)
MIC [5]: < 0.06 µg/mL
MIC [6]: 4 µg/mL (≈ 7.68 µM)
MIC [7]: 0.5 µg/mL (≈ 0.96 µM)
MIC [8]: 0.5 µg/mL (≈ 0.96 µM)
MIC [9]: 2 µg/mL (≈ 3.84 µM)
MIC [10]: 2 µg/mL (≈ 3.84 µM)
MIC [11]: 0.25 µg/mL (≈ 0.48 µM)
MIC [12]: 1 µg/mL (≈ 1.92 µM)
MIC [13]: 8 µg/mL (≈ 15.4 µM)
MIC [14]: 0.5 µg/mL (≈ 0.96 µM)
MIC [15]: 1 µg/mL (≈ 1.92 µM)
MIC [16]: 0.12 µg/mL (≈ 0.231 µM)
MIC [17]: 16 µg/mL (≈ 30.7 µM)
MIC [18]: > 32 µg/mL
MIC [19]: 16 µg/mL (≈ 30.7 µM)
MIC [20]: 0.25 µg/mL (≈ 0.48 µM)
MIC [21]: 0.25 µg/mL (≈ 0.48 µM)
MIC [22]: 0.12 µg/mL (≈ 0.231 µM)
MIC [23]: > 32 µg/mL
MIC [24]: 1 µg/mL (≈ 1.92 µM)
MIC [25]: 1 µg/mL (≈ 1.92 µM)
MIC [26]: > 32 µg/mL
MIC ([27]; MIC range): 16 to 32 µg/mL (≈ 30.7 to 61.5 µM)
MIC50 [27]: 32 µg/mL (≈ 61.5 µM)
MIC90 [27]: 32 µg/mL (≈ 61.5 µM)
MIC ([28]; MIC range): 1 to 8 µg/mL (≈ 1.92 to 15.4 µM)
MIC50 [28]: 2 µg/mL (≈ 3.84 µM)
MIC90 [28]: 4 µg/mL (≈ 7.68 µM)
MIC [29, 34]: 0.12 to 0.5 µg/mL (≈ 0.231 to 0.96 µM)
MIC ([29]; medium IsoB + 20% serum): 0.1 to 1 µg/mL
MIC50 [29, 34]: 0.25 µg/mL (≈ 0.48 µM)
MIC90 [29, 34]: 0.5 µg/mL (≈ 0.96 µM)
MIC50 ([29]; medium IsoB + 20% serum): 0.5 µg/mL
MIC50 [30]: 2 µg/mL (≈ 3.84 µM)
MIC90 [30]: 4 µg/mL (≈ 7.68 µM)
MIC ([30]; MIC range): 0.12 to 8 µg/mL (≈ 0.231 to 15.4 µM)
MIC ([31]; MIC range): 2 to 32 µg/mL (≈ 3.84 to 61.5 µM)
MIC50 [31]: 4 µg/mL (≈ 7.68 µM)
MIC ([32]; MIC range): 0.5 to 2 µg/mL (≈ 0.96 to 3.84 µM)
MIC50 [32]: 1 µg/mL (≈ 1.92 µM)
MIC90 [32]: 2 µg/mL (≈ 3.84 µM)
SMILES: CC(C)(C)N1CC/C(=C\C2=C(C(=O)O)N3C(=O)[C@@H](NC(=O)/C(=N\O)c4csc(N)n4)[C@H]3SC2)C1=O [J]
ED50 [2]: > 2 mg/kg

MIC [4]: ≤ 0.06 µg/mL
MIC [5]: ≤ 0.06 µg/mL
MIC [6]: 4 µg/mL (≈ 7.93 µM)
MIC [7]: ≤ 0.06 µg/mL
MIC [8]: ≤ 0.06 µg/mL
MIC [9]: 2 µg/mL (≈ 3.96 µM)
MIC [10]: 0.25 µg/mL (≈ 0.495 µM)
MIC [11]: 0.25 µg/mL (≈ 0.495 µM)
MIC [12]: 1 µg/mL (≈ 1.98 µM)
MIC [13]: 16 µg/mL (≈ 31.7 µM)
MIC [14]: 2 µg/mL (≈ 3.96 µM)
MIC [15]: 0.12 µg/mL (≈ 0.238 µM)
MIC [33]: 4 µg/mL (≈ 7.93 µM)
MIC [16]: ≤ 0.06 µg/mL
MIC [17]: 8 µg/mL (≈ 15.9 µM)
MIC [18]: 16 µg/mL (≈ 31.7 µM)
MIC [19]: 16 µg/mL (≈ 31.7 µM)
MIC [20]: 0.5 µg/mL (≈ 0.991 µM)
MIC [21]: ≤ 0.06 µg/mL
MIC [22]: ≤ 0.06 µg/mL
MIC [23]: 16 µg/mL (≈ 31.7 µM)
MIC [24]: 1 µg/mL (≈ 1.98 µM)
MIC [25]: 1 µg/mL (≈ 1.98 µM)
MIC [26]: > 32 µg/mL
SMILES: C=CCN1CC/C(=C\C2=C(C(=O)O)N3C(=O)[C@@H](NC(=O)/C(=N\O)c4csc(N)n4)[C@H]3SC2)C1=O [L, [6R-[3(E),6α,7β(Z)]]-3-[[1-Allyl-2-oxo-3-pyrrolidinylidene]methyl]-7-[[(2-amino-4-thiazolyl)(hydroxyimino)acetyl]amino]-8-oxo-5-thia-1-azabicyclo[4.2.0]oct-2-ene-2-carboxylic acid]

MIC [4]: ≤ 0.06 µg/mL
MIC [5]: ≤ 0.06 µg/mL
MIC [6]: 8 µg/mL (≈ 15.9 µM)
MIC [7]: 0.25 µg/mL (≈ 0.497 µM)
MIC [8]: ≤ 0.06 µg/mL
MIC [9]: 1 µg/mL (≈ 1.99 µM)
MIC [10]: 1 µg/mL (≈ 1.99 µM)
MIC [11]: 0.25 µg/mL (≈ 0.497 µM)
MIC [12]: 1 µg/mL (≈ 1.99 µM)
MIC [13]: 16 µg/mL (≈ 31.8 µM)
MIC [14]: 8 µg/mL (≈ 15.9 µM)
MIC [15]: 0.12 µg/mL (≈ 0.238 µM)
MIC [33]: 4 µg/mL (≈ 7.94 µM)
MIC [16]: ≤ 0.06 µg/mL
MIC [17]: 8 µg/mL (≈ 15.9 µM)
MIC [18]: 8 µg/mL (≈ 15.9 µM)
MIC [19]: 4 µg/mL (≈ 7.94 µM)
MIC [20]: 0.5 µg/mL (≈ 0.993 µM)
MIC [21]: ≤ 0.06 µg/mL
MIC [22]: ≤ 0.06 µg/mL
MIC [23]: 8 µg/mL (≈ 15.9 µM)
MIC [24]: 4 µg/mL (≈ 7.94 µM)
MIC [25]: 1 µg/mL (≈ 1.99 µM)
MIC [26]: > 32 µg/mL
SMILES: N#CCN1CC/C(=C\C2=C(C(=O)O)N3C(=O)[C@@H](NC(=O)/C(=N\O)c4csc(N)n4)[C@H]3SC2)C1=O [M, [6R-[3(E),6α,7β(Z)]]-7-[[(2-Amino-4-thiazolyl)(hydroxyimino)acetyl]-amino]-3-[[1-cyanomethyl-2-oxo-3-pyrrolidinylidene]methyl]-8-oxo-5-thia-1-azabicyclo[4.2.0]oct-2-ene-2-carboxylic acid]
